# Source: publication PMC7155171, “Probing the Open Global Health Chemical Diversity Library for Multistage-Active Starting Points for Next-Generation Antimalarials” (ACS Infectious Diseases, 2020)
# Where two headings read alike, the source gives them in different places.
# Experiments:
# [1] = tested on: P. berghei liver stage (PbLuc); assay: P. berghei luciferase liver stage (PbLuc) assay in HepG2-A16-CD81 hepatocytes; assay type: cell-based, Plasmodium berghei; details: Plasmodium berghei
# [2] = target: recombinant firefly luciferase (Photinus pyralis, UniProt P08659); assay: biochemical
# Sequence of recombinant firefly luciferase (P08659 whole entry): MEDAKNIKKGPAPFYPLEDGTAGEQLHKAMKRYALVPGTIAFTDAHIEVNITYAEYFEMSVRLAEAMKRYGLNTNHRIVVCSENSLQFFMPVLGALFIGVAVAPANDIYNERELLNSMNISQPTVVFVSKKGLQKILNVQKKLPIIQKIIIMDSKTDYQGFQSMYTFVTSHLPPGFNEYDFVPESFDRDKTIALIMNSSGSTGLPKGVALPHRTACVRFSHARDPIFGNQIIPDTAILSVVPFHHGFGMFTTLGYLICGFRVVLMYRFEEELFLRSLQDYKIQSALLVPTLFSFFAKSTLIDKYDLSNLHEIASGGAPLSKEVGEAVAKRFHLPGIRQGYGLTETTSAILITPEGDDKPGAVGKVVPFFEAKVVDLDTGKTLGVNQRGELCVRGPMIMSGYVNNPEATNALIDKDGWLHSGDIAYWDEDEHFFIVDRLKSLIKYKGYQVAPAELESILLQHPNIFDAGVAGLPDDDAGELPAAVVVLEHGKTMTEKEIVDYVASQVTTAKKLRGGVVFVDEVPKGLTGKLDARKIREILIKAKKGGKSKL
# [3] = tested on: HepG2-A16-CD81 hepatocytes; assay: HepG2 cytotoxicity screening (CellTiter-Glo); details: for IC50: HepG2-A16-CD81, read-out: HepG2 tox IC50
# [4] = tested on: P. vivax patient isolates, exoerythrocytic forms (schizonts and hypnozoites); assay: P. vivax liver stage assay in HC04 cells (immunofluorescence); details: HC04 cells treated 24 h before sporozoites, nanomolar concentrations, counted day 7
# in vitro = details: human
# [5] = tested on: P. falciparum (NF54) stage V gametocytes; assay: Stage V gametocyte viability assay (MitoTracker Red CMXRos high content imaging); assay type: cell-based, Plasmodium falciparum; details: Plasmodium falciparum, NF54, 72 h
# [6] = tested on: P. falciparum Dd2 (PfLuc) line expressing firefly luciferase, asexual blood stage; assay: microbe, parasite or virus in culture; parameters: species or system P. falciparum Dd2-luciferase in human red blood cells; PfLuc Dd2 asexual blood stage luciferase viability, BrightGlo luminescence, 96 h; details: Plasmodium falciparum, DD2, Erythrocyte, read-out: CDD P. falciparum Luc 11pt dose response (96hr, n=2): IC50 (μM), 11-point
# Method: (§1) A transgenic line of Plasmodium falciparum (Dd2) constitutively expressing firefly luciferase was used for primary and reconfirmation screening. Cultures were maintained in complete media at 5% hematocrit (Human Whole Blood O+) and incubated at 37 °C in a low oxygen environment (3% O2, 5% CO2, and 92% N2). Culture health and parasitemia were tracked by Giemsa staining and bright field microscopy. Prior to dispensing parasites for primary screening, 20 nL of test compounds and 10 nL of control compounds (artemisinin and DMSO) were seeded per well using an Echo 550 acoustic dispenser (Labcyte) for final assay concentrations of 5 and 10 μM, respectively. When parasite cultures reached 3% to 8% parasitemia, as determined by a blood smear, infected blood was centrifuged at 800g for 5 min. […] From this blood mixture, 8 μL was dispensed per well in 1536-well, white, solid-bottom plates (789173-F, Greiner) using a MultiFlo FX Multi-Mode dispenser (BioTek). Plates were covered with a porous metal lid and incubated at 37 °C inside large plastic Ziploc bags filled with a blood gas mixture (3% O2, 5% CO2, and 92% N2) for 96 h. To prevent evaporation, a clean tray of water was included within each bag. Following incubation, BrightGlo was prepared by manufacturer specifications and dispensed at 2 μL per well using the MultiFlo dispenser. Plates were left for 20 min before being read with the ViewLux uHTS microplate imager (PerkinElmer) with a 90 s exposure time at the High Sensitivity Luminescence setting. Raw data were processed using GeneData (v12.0.5), whereby activity was normalized to negative minus positive controls. The correction of Runwise Pattern (Multiplicative) was applied, and compounds were considered hits when activity was reduced by ≥70%. […] Also, plates tested in 11-point dose response format were incubated at both 48 a The primary assay was run at a compound concentration of 5 μM. Briefly, 8 μL of an ABS parasite mixture (∼10,000 parasites) was dispensed into 1536-well plates previously spotted with 64,811 GHCDL compounds (the remaining 3642 library compounds arrived later and were evaluated separately). After a 96 h incubation, 2 μL of luciferin (BrightGlo) was added, and the luminescent signal was measured. Bioluminescence was normalized to DMSO (negative control) and artemisinin-treated (positive control) wells for the single point screens. For this primary screen, assay fidelity was determined on a per plate basis using both the Z′-factor and the potency variance of the positive (artemisinin) and negative (DMSO) controls. The mean Z′ value was 0.60 (range of 0.43–0.75), with only one plate falling below our ideal 0.5 threshold (Figure S1).
# [7] = tested on: P. falciparum Dd2 (PfLuc) line expressing firefly luciferase, asexual blood stage; assay: microbe, parasite or virus in culture; parameters: species or system P. falciparum Dd2-luciferase in human red blood cells; PfLuc Dd2 asexual blood stage luciferase viability, BrightGlo luminescence, 48 h; details: Plasmodium falciparum, DD2, Erythrocyte, read-out: CDD P. falciparum Luciferase 11pt dose response (48hr, n=2): IC50 (μM), 11-point
# Method: as §1, with “From these (Sets 1 and 2),” for “The primary assay was run at a compound concentration of 5 μM. Briefly, 8 μL of an ABS parasite mixture (∼10,000 parasites) was dispensed into 1536-well plates previously spotted with 64,811 GHCDL”, “were resupplied as fresh powders” for “(the remaining 3642 library compounds arrived later”, “and” for “and were”, “in 11-point dose response tests (Pfluc; n = 2)” for “separately). After a 96 h incubation, 2 μL of luciferin (BrightGlo) was added, and the luminescent signal was measured. Bioluminescence was normalized to DMSO (negative control) and artemisinin-treated (positive control) wells”, “two time points.” for “single point screens. For this primary screen, assay fidelity was determined on a per plate basis using both the Z′-factor and the potency variance of the positive (artemisinin) and negative (DMSO) controls. The mean Z′ value was 0.60 (range of 0.43–0.75), with only one plate falling below our ideal 0.5 threshold (Figure S1).”
# P. falciparum Dd2 = assay: microbe, parasite or virus in culture; parameters: species or system P. falciparum Dd2 in human red blood cells; SYBR Green I asexual blood stage proliferation (DNA) assay, P. falciparum Dd2, 96 h; details: Plasmodium falciparum, DD2, Erythrocyte, 96 h, read-out: CDD P. falciparum Sybr Green I ABS Dd2 Dose Response: IC50 (uM)
# [8] = tested on: HepG2-A16-CD81 hepatocytes; assay: cells; parameters: Uninfected hepatocyte viability, CellTiter-Glo luminescence; details: sheet CDD Export 1;, cytotoxicity primary screen, read-out: Table S5. Liver stage reconfirmation data / HepG2 Cytotoxicity primary screen (2uM): % Inhibition
# Method: For the screen, 5 μL of HepG2-A16-CD81 hepatocytes containing 3 × 10^3 cells was seeded into 1536-well plates, which had been prespotted with 10 nL of library compound (2 μM final assay concentration (Figure 1)) and incubated overnight. For PbLuc infected plates, approximately 750 purified sporozoites in 5 μL of screening media were added to each well and incubated for 48 h before measuring luciferase activity. Compounds were tested for toxicity in parallel (see Methods) by measuring uninfected hepatocyte viability using CellTiter-Glo. […] This hit rate was slightly lower than expected for an agnostic library, which prompted us to rescreen the entire library at 10 μM. The PbLuc and cytotoxicity assay plates for this second replicate would be stamped in-house with 50 nL of library compound per well, using the same compound plates as the sexual stage screen described below. All the assay parameters were kept similar, except the change in concentration and shortening the time the compounds spent in each well prior to infection. […] All potential false positive effectors from the CellTiter-Glo assay were filtered from subsequent studies (Table S1). Naturally, there were more primary hits from the 10 μM than the 2 μM screen due to the higher testing concentration. For reconfirmation, we sourced all the hits that inhibited PbLuc at >70% and mean HepG2 at <50% in the 2 μM screen or PbLuc at >60% in both 2 and 10 μM screens and mean HepG2 at <50%. The resulting compounds were acquired as DMSO stocks and retested in the dose response (50–2.82 × 10^–4 μM or 25–141.13 × 10^–6 μM) against PbLuc and uninfected hepatocytes (Table S5). […] The majority of these compounds were weak inhibitors, although 18 submicromolar hits were found (Table S5).
# [9] = tested on: P. falciparum asexual blood stage (wild-type and DDD01061024-resistant Dd2-B2 clones); assay: Lactate dehydrogenase (LDH) asexual blood stage assay; assay type: cell-based, Plasmodium falciparum; details: for IC50: Plasmodium falciparum
# Description: Mutations within this site, and indeed at our V259L residue, were previously reported using other known cytochrome b inhibitors including ELQ400[49] and RYL-552.[50]
# Figure S3. DDD01061024 is a cytochrome bc1 inhibitor.
# The dual stage inhibitor, DDD01061024, is shown occupying the Q0 site (residues outlined in orange) of a Pf Cyt Bc1 homology model (from PDB: 1BE3) (a). A local V259L substitution (red) in mutant clones may destabilize the interactions within this pocket, helping resistant clones tolerate higher doses of the inhibitor (b). DDD01061024-resistannt mutants show cross-resistance to atovaquone (c), another multistage active antimalarial which targets the Q0 binding site. Dose dependent inhibition was determined using a metabolic endpoint (LDH) before normalizing to controls (n=2). Measuring the percentage of PbGFP infected hepatocytes using a high content imaging system validates the liver-stage potency of DDD01061024 in a fluorescence-based model (d). Infected hepatocytes were counted using luminescence-independent high content imaging in treated wells and normalized to controls over two replicates.
# (1 picture or pasted object on this page, not shown here)
# [10] = HepG2-A16-CD81, 48 h, 48 h liver stage, HepG2-A16-CD81, read-out: Pbluc (EEF) IC50
smiles,measurement,setting,value
Cc1cc(NC(=O)C(C)C)n(-c2nc(C)c(C)c(=O)[nH]2)n1 [DDD01027481],IC50,[1]; [10],138 nM
same,IC50,[2]; read-out: rLuc IC50,> 50000 nM
same,IC50,[3],> 25000 nM
same,P. vivax hypnozoites or schizonts after treatment,[4],no detectable hypnozoites or schizonts
CCc1c(C)nc(-n2nc(C3CC3)cc2NC(C)=O)[nH]c1=O [DDD01027733],IC50,[1]; [10],96 nM
same,IC50,[2]; read-out: rLuc IC50,> 50000 nM
same,IC50,[3],> 25000 nM
same,P. vivax hypnozoites or schizonts after treatment,[4],no detectable hypnozoites or schizonts
O=C1NCCN1C1CCCN(Cc2coc(-c3ccc(F)cc3)n2)C1 (centres unmarked) [UCSD-0845351],inhibition at 2 µM,in vitro,0.09%
CCS(=O)(=O)N1[CH]Cc2ccc(NC(=O)Nc3cccc(C#N)c3)cc21 [UCSD-0785775],Emax,"[1]; HepG2-A16-CD81, 48 h, 12pt dose response, maximum inhibition",91.5%
same,inhibition at 2 µM,"[1]; HepG2-A16-CD81, primary screen, 2 uM",-22.1%
same,inhibition at 10 µM,"[1]; HepG2-A16-CD81, primary screen, 10 uM",86.7%
same,IC50,"[1]; HepG2-A16-CD81, read-out: PbLuc 12pt dose response: IC50",1360 nM
same,Emax,"[2]; dose response, maximum inhibition, read-out: rLuc inhibition dose response: Maximum inhibition (%)",6.44%
same,IC50,"[2]; dose response, read-out: rLuc inhibition dose response: IC50",> 25000 nM
same,IC50,in vitro,> 25000 nM
same,inhibition at 2 µM,in vitro,-2.63%
same,inhibition at 10 µM,in vitro,39.2%
same,HepG2 cytotoxicity 12pt dose response: Maximum inhibition (%),"[3]; 12pt dose response, maximum inhibition",52.4%
O=C1[C@@H]2CC[C@@H](CN(c3ncnc4ccsc34)C2)N1CC1CC1 [UCSD-0827296],inhibition at 2 µM,in vitro,-8.03%
"CC(C)C[C@H](N)C(=O)N1CC2(CCNCC2)c2cc(Cl)ccc21 [DDD01029528, CC(C)C[C@H](N)C(=O)N1CC2(CCNCC2)C2=CC(Cl)=CC=C12]",IC50,"[5]; read-out: Stg V Gam dose response IC50 (µM) (n=3), 10-point dose response, n=3, 72 h",3.02 µM
same,inhibition at 2 µM,[5]; read-out: Stg V Gam primary screen: Inhibition % (2uM) (n=2),49.8%
same,IC50,[6],0.553 µM
same,IC50,[7],1.79 µM
same,IC50,P. falciparum Dd2,1.52 µM
c1ccc(-c2ccc(C3CNCCO3)nc2)cc1 (centres unmarked) [DDD01270216],IC50,[1]; [10],< 0.141 nM
same,IC50,[2]; read-out: rLuc IC50,220 nM
same,IC50,[6],1.44 µM
same,IC50,[7],1.77 µM
same,IC50,P. falciparum Dd2,> 12.5 µM
same,inhibition at 2 µM,[8],6.27%
same,IC50,[3],> 25000 nM
O=C1C(O)=C([C@H]2CC[C@H](c3ccc(Cl)cc3)CC2)C(=O)c2ccccc21 [atovaquone],"fold increase of IC50, DDD01061024 mutants vs wild-type",[9],11 fold
same,IC50,"[9]; DD2, read-out: IC50 against wild-type parasites",0.377 nM
same,IC50,"[9]; DD2, read-out: IC50 in DDD01061024 mutants",4.19 nM
COc1ccc(CNCC2CCN(CC(C)O)CC2)c2ccccc12 (centres unmarked) [DDD01302860],IC50,[6],0.621 µM
same,IC50,[7],1.27 µM
same,IC50,P. falciparum Dd2,0.743 µM
CNc1nc(C)c(-c2nc(-c3c(C)ncc4c3CCNC4)no2)s1 [DDD01244276],IC50,[6],0.337 µM
same,IC50,[7],0.956 µM
same,IC50,P. falciparum Dd2,1.65 µM
Cc1ccc(-c2ccccc2CC2(C(=O)NC(C)C)CCCNC2)cc1 (centres unmarked) [DDD01056815],IC50,[6],0.863 µM
same,IC50,[7],> 4.16 µM
same,IC50,P. falciparum Dd2,> 4.16 µM
